# Measurements as given in US20170151240A1, “F10 Inhibits Growth of PC3 Xenografts and Enhances the Effects of Radiation Therapy” (WAKE FOREST UNIVERSITY, priority 2014, published 2017).
# What was measured:
# PC3 cells = experiment: Clonogenic survival assay; type: cell-based, human; settings: 72 h treatment; for decrease of colony formation relative to control: 10 μM
# Excerpt: (§1) Other anti-angiogenic/anti-tumor agents that can be used in conjunction with the compounds, compositions, methods and combination therapy of the present invention include: SD-7784 (Pfizer, USA); cilengitide. […]
# [1] = once daily, three times per week; higher doses lethal; cited from earlier work
# [2] = molecular target: T1, thymidylate synthase (TS) (Homo sapiens, UniProt P04818); experiment: TS catalytic activity assay in treated PC3 cells; type: cell-based; settings: 5-FU 10^−6 M
# T1 construct: endogenous in cells; host or cells: PC3 (human prostate cancer cell line, ATCC)
# Excerpt: as §1
# T1 sequence (P04818 2-313 limits assumed): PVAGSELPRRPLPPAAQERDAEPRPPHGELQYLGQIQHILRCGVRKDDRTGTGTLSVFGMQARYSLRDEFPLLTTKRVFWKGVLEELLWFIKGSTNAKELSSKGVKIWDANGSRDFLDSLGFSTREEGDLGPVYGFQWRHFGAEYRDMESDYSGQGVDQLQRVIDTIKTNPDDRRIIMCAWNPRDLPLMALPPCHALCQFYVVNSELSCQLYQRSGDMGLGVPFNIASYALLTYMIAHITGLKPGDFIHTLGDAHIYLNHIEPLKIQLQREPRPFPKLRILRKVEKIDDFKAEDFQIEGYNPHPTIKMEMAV
compound,measurement,setting,value
"O=c1[nH]cc(F)c(=O)[nH]1 [5-FU, 5-fluorouracil]",PC3 cell colony formation,PC3 cells; 1 μM,no effect
same,decrease of colony formation relative to control,PC3 cells,< 50%
same,decrease of colony formation relative to control,PC3 cells; listed as 5FU,less than 50%
same,maximum tolerated dose,[1],45 mg/kg/dose
same,TS activity relative to control,[2]; 8 and 16 h,increased
same,TS activity,[2]; 48 h timepoint,~50 % control
